# Laboratory results reported in patent publication US7968577B2 (Bristol-Myers Squibb Company, priority 2006, dated 2011).
# Assays:
# [1] = biological target: T1, human glucocorticoid receptor (Homo sapiens, UniProt P04150); test: Glucocorticoid Receptor Binding Assay (I), fluorescence polarization competitor kit (Fluormone GS Red); details: GR Binding Assay (I)
# T1 construct: purified human recombinant full-length glucocorticoid receptor; purchased Invitrogen Part #2893
# T1 sequence (P04150 1-777): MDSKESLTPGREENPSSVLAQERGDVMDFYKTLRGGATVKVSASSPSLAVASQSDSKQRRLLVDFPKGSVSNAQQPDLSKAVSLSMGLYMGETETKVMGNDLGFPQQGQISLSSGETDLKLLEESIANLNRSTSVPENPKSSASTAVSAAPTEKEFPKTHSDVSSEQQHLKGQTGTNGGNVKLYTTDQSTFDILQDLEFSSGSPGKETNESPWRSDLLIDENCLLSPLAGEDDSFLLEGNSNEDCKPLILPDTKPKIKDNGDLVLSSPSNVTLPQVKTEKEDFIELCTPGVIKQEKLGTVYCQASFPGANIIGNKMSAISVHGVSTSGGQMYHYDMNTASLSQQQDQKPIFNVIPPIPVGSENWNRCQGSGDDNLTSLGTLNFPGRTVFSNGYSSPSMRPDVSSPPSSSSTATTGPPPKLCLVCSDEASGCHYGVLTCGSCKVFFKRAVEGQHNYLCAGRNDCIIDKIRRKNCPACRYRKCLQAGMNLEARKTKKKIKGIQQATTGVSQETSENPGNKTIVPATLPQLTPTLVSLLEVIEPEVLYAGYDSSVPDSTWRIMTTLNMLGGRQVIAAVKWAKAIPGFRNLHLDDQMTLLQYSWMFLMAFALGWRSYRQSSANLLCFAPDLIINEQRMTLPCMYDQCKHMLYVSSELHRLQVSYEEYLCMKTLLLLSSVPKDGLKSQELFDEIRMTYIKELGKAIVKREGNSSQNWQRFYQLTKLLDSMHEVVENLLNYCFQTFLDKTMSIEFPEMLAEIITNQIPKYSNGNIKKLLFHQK
# Experimental: Glucocorticoid Receptor Binding Assay (I)^a
# In order to assess the affinity of test compounds for the human glucocorticoid receptor, a commercially available kit was used (Glucocorticoid Receptor Competitor Assay Kit, Invitrogen Part #2893). Briefly, purified human recombinant full-length glucocorticoid receptor (2 nM) was mixed with fluorescently labeled glucocorticoid (1 nM Fluormone GS Red) in the presence or absence of test compound. After two hour incubation at room temperature in the dark, the fluorescence polarization (FP) of the samples was measured. […] Test compounds were analyzed in the concentration range from 8.5 E-05 μM to 5 μM.
# [2] = biological target: T2, human full-length glucocorticoid receptor (Homo sapiens, UniProt P04150); test: Glucocorticoid Receptor Binding Assay (II), fluorescence polarization competitor kit (Fluormone GS1); details: GR Binding Assay (II)
# T2 construct: recombinantly expressed human full-length glucocorticoid receptor; purchased PanVera Co., Madison, Wis; P2816
# T2 sequence (P04150 1-777): T1 sequence (P04150 1-777)
# In short: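 Cell lysate with recombinant receptor incubated with 1 nM Fluormone GS1 tracer, with or without test compound, for one hour at room temperature. Binding read as displacement by fluorescence polarization.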
SMILES,Ki [1],Ki [2]
"CC(C)(C(=O)Nc1nccs1)C(c1ccc(N2CCOCC2)cc1)c1cccc(F)c1 (single isomer, unassigned) [Example 254, 3-(3-fluorophenyl)-2,2-dimethyl-3-(4-(4-morpholinyl)phenyl)-N-1,3-thiazol-2-ylpropanamide]",104 nM,25.8 nM
"CC(C)(C(=O)Nc1nccs1)[C@H](c1ccccc1)c1ccc(O)cc1 [Example 326, (3R)-3-(4-hydroxyphenyl)-2,2-dimethyl-3-phenyl-N-1,3-thiazol-2-ylpropanamide]",18.7 nM,12.9 nM
"CC(C)(C(=O)Nc1nncs1)C(c1ccccc1)c1ccc(Cc2ccccc2)cc1 (stereo not shown) [Example 320, 2,2-dimethyl-3-phenyl-3-(4-(phenylmethyl)phenyl)-N-1,3,4-thiadiazol-2-ylpropanamide]",187 nM,–
"CC(=O)c1cccc(-c2ccc(C(c3ccccc3)C(C)(C)C(=O)Nc3nncs3)cc2)c1 (stereo not shown) [Example 413, 3-(3′-acetyl-4-biphenylyl)-2,2-dimethyl-3-phenyl-N-1,3,4-thiadiazol-2-ylpropanamide]",110 nM,–
"CC(C)(C(=O)Nc1nncs1)C(c1ccccc1)c1ccc(Br)cc1 (stereo not shown) [Example 323, 3-(4-bromophenyl)-2,2-dimethyl-3-phenyl-N-1,3,4-thiadiazol-2-ylpropanamide]",5.07 nM,–
"COc1cccc(-c2ccc(C(c3ccccc3)C(C)(C)C(=O)Nc3nncs3)cc2)c1 (stereo not shown) [Example 410, 3-(3′-methoxy-4-biphenylyl)-2,2-dimethyl-3-phenyl-N-1,3,4-thiadiazol-2-ylpropanamide]",4.45 nM,–
"COc1ccc(-c2ccc(C(CC(C)C)C(C)(C)C(=O)Nc3nncs3)cc2)cc1 (stereo not shown) [Example 394, 2,2,5-trimethyl-3-(4′-(methyloxy)-4-biphenylyl)-N-1,3,4-thiadiazol-2-ylhexanamide]",9.28 nM,–
"Cc1nnc(NC(=O)C(C)(C)C(CC(C)C)c2ccc(N3CCOCC3)cc2)s1 (stereo not shown) [Example 388, 2,2,5-trimethyl-N-(5-methyl-1,3,4-thiadiazol-2-yl)-3-(4-(4-morpholinyl)phenyl)hexanamide]",14 nM,–
"CN1CCN(C(=O)c2ccc(-c3ccc(C(c4ccccc4)C(C)(C)C(=O)Nc4nncs4)cc3)cc2)CC1 (stereo not shown) [Example 426, 2,2-dimethyl-3-(4′-((4-methyl-1-piperazinyl)carbonyl)-4-biphenylyl)-3-phenyl-N-1,3,4-thiadiazol-2-ylpropanamide]",3.68 nM,–
"CC(C)CC(c1ccc(Br)cc1)C(C)(C)C(=O)Nc1nccs1 (stereo not shown) [Example 386, 3-(4-bromophenyl)-2,2,5-trimethyl-N-1,3-thiazol-2-ylhexanamide]",20.6 nM,–
"COc1ccc([C@@H](c2ccccc2)C(C)(C)C(=O)Nc2nncs2)cc1Br [Example 292, (3R)-3-(3-bromo-4-(methyloxy)phenyl)-2,2-dimethyl-3-phenyl-N-1,3,4-thiadiazol-2-ylpropanamide]",24.5 nM,–
"CC(C)CC(c1ccc(-c2ccc(OC(F)(F)F)cc2)cc1)C(C)(C)C(=O)Nc1nncs1 (stereo not shown) [Example 437, 2,2,5-trimethyl-N-1,3,4-thiadiazol-2-yl-3-(4′-(trifluoromethoxy)-4-biphenylyl)hexanamide]",5.33 nM,–
"CCCCOc1ccc(-c2ccc(C(c3ccccc3)C(C)(C)C(=O)Nc3nncs3)cc2)cc1 (stereo not shown) [Example 416, 3-(4′-butoxy-4-biphenylyl)-2,2-dimethyl-3-phenyl-N-1,3,4-thiadiazol-2-ylpropanamide]",42.5 nM,–
"CC(C)(C(=O)Nc1nncs1)C(c1ccccc1)c1ccc(-c2ccc3c(c2)CCO3)cc1 (stereo not shown) [Example 415, 3-(4-(2,3-dihydro-1-benzofuran-5-yl)phenyl)-2,2-dimethyl-3-phenyl-N-1,3,4-thiadiazol-2-ylpropanamide]",6.08 nM,–
"CC(C)(C)c1csc(NC(=O)C2(C(c3ccccc3)c3ccccc3)CCCC2)n1 [Example 151, N-(4-(1,1-dimethylethyl)-1,3-thiazol-2-yl)-1-(diphenylmethyl) cyclopentanecarboxamide]",1150 nM,–

# The remaining compounds from weak to strong by Ki [1], led by results:
Ki [1],Ki [2],SMILES
125 nM,121 nM,"CC(C)(C(=O)Nc1nncs1)C(c1ccc(N2CCOCC2)cc1)c1cccc(F)c1 (single isomer, unassigned) [Example 256, 3-(3-fluorophenyl)-2,2-dimethyl-3-(4-(4-morpholinyl)phenyl)-N-1,3,4-thiadiazol-2-ylpropanamide]"
24.2 nM,–,"CN(C)C(=O)c1ccc(-c2ccc(C(c3ccccc3)C(C)(C)C(=O)Nc3nncs3)cc2)cc1 (stereo not shown) [Example 380, 4′-(2,2-dimethyl-3-oxo-1-phenyl-3-(1,3,4-thiadiazol-2-ylamino)propyl)-N,N-dimethyl-4-biphenylcarboxamide]"
19.4 nM,–,"CC(C)CC(c1ccc(-c2cccc(Cl)c2)cc1)C(C)(C)C(=O)Nc1nncs1 (stereo not shown) [Example 434, 3-(3′-chloro-4-biphenylyl)-2,2,5-trimethyl-N-1,3,4-thiadiazol-2-ylhexanamide]"
17.9 nM,–,"COCc1ccc(-c2ccc(C(CC(C)C)C(C)(C)C(=O)Nc3nncs3)cc2)cc1 (stereo not shown) [Example 428, 3-(4′-(methoxymethyl)-4-biphenylyl)-2,2,5-trimethyl-N-1,3,4-thiadiazol-2-ylhexanamide]"
16.5 nM,–,"CC(C)(C(=O)Nc1nncs1)C(c1ccccc1)c1ccc(-c2ccc(O)cc2)cc1 (stereo not shown) [Example 412, 3-(4′-hydroxy-4-biphenylyl)-2,2-dimethyl-3-phenyl-N-1,3,4-thiadiazol-2-ylpropanamide]"
12.4 nM,–,"CC(C)CC(c1ccc(-c2ccc(-c3ccccc3)cc2)cc1)C(C)(C)C(=O)Nc1nncs1 (stereo not shown) [Example 433, 2,2,5-trimethyl-3-(1,1′:4′,1″-terphenyl-4-yl)-N-1,3,4-thiadiazol-2-ylhexanamide]"
9.18 nM,–,"CC(C)Cc1ccc(-c2ccc(C(c3ccccc3)C(C)(C)C(=O)Nc3nncs3)cc2)cc1 (stereo not shown) [Example 383, 2,2-dimethyl-3-(4′-(2-methylpropyl)-4-biphenylyl)-3-phenyl-N-1,3,4-thiadiazol-2-ylpropanamide]"
5.19 nM,13.6 nM,"Cc1cccc(C(c2ccc(N3CCOCC3)cc2)C(C)(C)C(=O)Nc2nncs2)c1 (stereo not shown) [Example 235, 2,2-dimethyl-3-(3-methylphenyl)-3-(4-(4-morpholinyl)phenyl)-N-1,3,4-thiadiazol-2-ylpropanamide]"
4.87 nM,–,"CCOc1ccc(-c2ccc(C(CC(C)C)C(C)(C)C(=O)Nc3nncs3)cc2)cc1 (stereo not shown) [Example 430, 3-(4′-ethoxy-4-biphenylyl)-2,2,5-trimethyl-N-1,3,4-thiadiazol-2-ylhexanamide]"
